Measurements reported in patent US8697709B2, “Fused ring heteroaryl kinase inhibitors” (The Regents of the University of California, priority 2008, dated 2014).
Numbering of substitutions follows the chain as printed. Where two headings read alike, the source gives them in different places.

Columns and labels:
Format in all cases: biochemical
c-Src = c-Src (Gallus gallus, UniProt P00523); experiment: In vitro kinase assay (32P peptide phosphorylation), WT Src
T338G Src = T338G Src (Gallus gallus, UniProt P00523, T338G); experiment: In vitro kinase assay, T338G Src
Experimental: (§1) Kinase reactions were initiated by the addition of […] cold ATP supplemented with 5 mCi γ^32P ATP and allowed to proceed at room temperature (RT). At 10 minutes […] of the reactions were spotted onto phosphocellulose sheets (P81, Whatman) and subsequently soaked in wash buffer (1.0% (v/v) phosphoric acid). The sheets were washed five times in buffer, dried, and transferred radioactivity was measured by phosphorimaging using a TyphoonTM scanner (Molecular Dynamics). Radioactive counts were quantified using ImageQuantTM software, and titration data were fit to a sigmoidal dose response to derive IC50 values using the Prism® software package. Dose responses were based on a 12 point inhibitor titration, using 1⁄3 dilutions starting from […]. Experiments were completed 2-4 times to derive mean values.

T315A Abl = target: T1, T315A Abl (Homo sapiens, UniProt P00519, T315A); experiment: In vitro kinase assay, T315A Abl; conditions: Table 1a
T1 sequence (P00519 242-493 T315A limits assumed): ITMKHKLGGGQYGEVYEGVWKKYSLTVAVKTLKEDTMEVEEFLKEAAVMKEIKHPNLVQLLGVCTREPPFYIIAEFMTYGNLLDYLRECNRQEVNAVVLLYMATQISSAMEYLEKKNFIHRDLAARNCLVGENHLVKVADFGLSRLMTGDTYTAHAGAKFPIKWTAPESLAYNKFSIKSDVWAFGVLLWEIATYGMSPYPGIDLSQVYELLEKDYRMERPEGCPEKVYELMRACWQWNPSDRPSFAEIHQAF
Experimental: as §1

Abl = target: T2, Abl (Homo sapiens, UniProt P00519); experiment: In vitro kinase assay (32P peptide phosphorylation), WT Abl; conditions: read-out: IC50 WT Abl
T2 sequence (P00519 242-493 limits assumed): T1 sequence (P00519 242-493 T315A limits assumed) with A74T

[1] = Table 1a, read-out: IC50 WT Src
[2] = unphosphorylated kinase domain, 100 mM ATP, read-out: IC50 for c-Src
[3] = Table 1b, read-out: IC50 WT Src

Structure (SMILES)	IC50 (c-Src; [1])	IC50 (T338G Src; Table 1a)	IC50 (T315A Abl)	IC50 (c-Src; [3])	other results
Cn1nc(Cc2ccc(NC(=O)c3cccc(C(F)(F)F)c3)cc2)c2c(N)ncnc21 [AD7]	1000 to 5000 nM	> 5000 nM	1000 to 5000 nM	–	–
Cn1nc(Cc2ccc(NC(=O)Nc3cccc(C(F)(F)F)c3)cc2)c2c(N)ncnc21 [AD8]	1000 to 5000 nM	1000 to 5000 nM	1000 to 5000 nM	–	–
Cn1nc(Cc2cccc(NC(=O)c3cccc(C(F)(F)F)c3)c2)c2c(N)ncnc21 [AD15]	> 5000 nM	1000 to 5000 nM	< 1000 nM	–	–
Cn1nc(Cc2cccc(NC(=O)Nc3cccc(C(F)(F)F)c3)c2)c2c(N)ncnc21 [AD16, 1-(3-((4-amino-1-methyl-1H-pyrazolo[3,4-d]pyrimidin-3-yl)methyl)phenyl)-3-(3-(trifluoromethyl)phenyl)urea]	1000 to 5000 nM	< 1000 nM	1000 to 5000 nM	–	IC50 (c-Src; [2]): ~6200 nM; IC50 (Abl; Table 1a): 1000 to 5000 nM
CC(C)(C)n1nc(Cc2cccc(NC(=O)c3cccc(C(F)(F)F)c3)c2)c2c(N)ncnc21 [AD25]	1000 to 5000 nM	< 1000 nM	< 1000 nM	–	–
CC(C)(C)n1nc(Cc2cccc(NC(=O)Nc3cccc(C(F)(F)F)c3)c2)c2c(N)ncnc21 [AD26, 1-(3-((1-tert-butyl-4-amino-1H-pyrazolo[3,4-d]pyrimidin-3-yl)methyl)phenyl)-3-(3-(trifluoromethyl)phenyl)urea]	< 1000 nM	< 1000 nM	< 1000 nM	–	IC50 (c-Src; [2]): 480 nM; IC50 (Abl; Table 1a): < 1000 nM
CC(C)n1nc(Cc2cccc(NC(=O)c3cccc(C(F)(F)F)c3)c2)c2c(N)ncnc21 [AD35]	> 5000 nM	1000 to 5000 nM	< 1000 nM	–	–
CC(C)n1nc(-c2cccc(NC(=O)c3cccc(C(F)(F)F)c3)c2)c2c(N)ncnc21 [AD52]	–	–	–	1000 to 5000 nM	IC50 (T338G Src; Table 1b): < 1000 nM
CC(C)n1nc(-c2cccc(NC(=O)Nc3cccc(C(F)(F)F)c3)c2)c2c(N)ncnc21 [AD53]	–	–	–	1000 to 5000 nM	IC50 (T338G Src; Table 1b): < 1000 nM
CC(C)n1nc(-c2ccc(NC(=O)c3cccc(C(F)(F)F)c3)cc2)c2c(N)ncnc21 [AD56]	–	–	–	1000 to 5000 nM	IC50 (T338G Src; Table 1b): < 1000 nM
Nc1ncnc2c1c(-c1ccc(NC(=O)Nc3cccc(C(F)(F)F)c3)cc1)nn2CCCO [AD64, 1-(4-(4-amino-1-(3-hydroxypropyl)-1H-pyrazolo[3,4-d]pyrimidin-3-yl)phenyl)-3-(3-(trifluoromethyl)phenyl)urea]	–	–	–	< 1000 nM	IC50 (Abl; Table 1b): > 5000 nM
Nc1ncnc2c1c(-c1ccc(NC(=O)c3cccc(C(F)(F)F)c3)cc1)nn2CCCO [AD65, N-(4-(4-amino-1-(3-hydroxypropyl)-1H-pyrazolo[3,4-d]pyrimidin-3-yl)phenyl)-3-(trifluoromethyl)benzamide]	–	–	–	> 5000 nM	IC50 (Abl; Table 1b): > 5000 nM
Nc1ncnc2c1c(-c1ccc(NC(=O)Nc3cccc(C(F)(F)F)c3)cc1)nn2[C@H]1CCOC1 [AD66, 1-(4-(4-amino-1-((S)-tetrahydrofuran-3-yl)-1H-pyrazolo[3,4-d]pyrimidin-3-yl)phenyl)-3-(3-(trifluoromethyl)phenyl)urea]	–	–	–	< 1000 nM	IC50 (Abl; Table 1b): < 1000 nM
Nc1ncnc2c1c(-c1ccc(NC(=O)c3cccc(C(F)(F)F)c3)cc1)nn2[C@H]1CCOC1 [AD67, N-(4-(4-amino-1-((S)-tetrahydrofuran-3-yl)-1H-pyrazolo[3,4-d]pyrimidin-3-yl)phenyl)-3-(trifluoromethyl)benzamide]	–	–	–	< 1000 nM	IC50 (Abl; Table 1b): 1000 to 5000 nM
Nc1ncnc2c1c(-c1ccc(NC(=O)c3cccc(C(F)(F)F)c3)cc1)nn2[C@@H]1CCOC1 [AD68, N-(4-(4-amino-1-((R)-tetrahydrofuran-3-yl)-1H-pyrazolo[3,4-d]pyrimidin-3-yl)phenyl)-3-(trifluoromethyl)benzamide]	–	–	–	> 5000 nM	IC50 (Abl; Table 1b): > 5000 nM
Nc1ncnc2c1c(-c1ccc(NC(=O)Nc3cccc(C(F)(F)F)c3)cc1)nn2[C@@H]1CCOC1 [AD69, 1-(4-(4-amino-1-((R)-tetrahydrofuran-3-yl)-1H-pyrazolo[3,4-d]pyrimidin-3-yl)phenyl)-3-(3-(trifluoromethyl)phenyl)urea]	–	–	–	1000 to 5000 nM	IC50 (Abl; Table 1b): > 5000 nM
Nc1ncnc2c1c(-c1ccc(NC(=O)c3cccc(C(F)(F)F)c3)cc1)nn2[C@H]1CCNC1 [AD70, N-(4-(4-amino-1-((S)-pyrrolidin-3-yl)-1H-pyrazolo[3,4-d]pyrimidin-3-yl)phenyl)-3-(trifluoromethyl)benzamide]	–	–	–	> 5000 nM	IC50 (Abl; Table 1b): > 5000 nM
Nc1ncnc2c1c(-c1ccc(NC(=O)Nc3cccc(C(F)(F)F)c3)cc1)nn2[C@H]1CCN(C(=O)Nc2cccc(C(F)(F)F)c2)C1 [AD71c, (S)-3-(4-amino-3-(4-(3-(3-(trifluoromethyl)phenyl)ureido)phenyl)-1H-pyrazolo[3,4-d]pyrimidin-1-yl)-N-(3-(trifluoromethyl)phenyl)pyrrolidine-1-carboxamide]	1000 to 5000 nM	–	–	–	IC50 (Abl; Table 1a): > 5000 nM
Nc1ncnc2c1c(-c1ccc(NC(=O)c3cccc(C(F)(F)F)c3)cc1)nn2[C@@H]1CCNC1 [AD72, N-(4-(4-amino-1-((R)-pyrrolidin-3-yl)-1H-pyrazolo[3,4-d]pyrimidin-3-yl)phenyl)-3-(trifluoromethyl)benzamide]	–	–	–	> 5000 nM	IC50 (Abl; Table 1b): > 5000 nM
Nc1ncnc2c1c(-c1ccc(NC(=O)Nc3cccc(C(F)(F)F)c3)cc1)nn2[C@@H]1CCN(C(=O)Nc2cccc(C(F)(F)F)c2)C1 [AD73c, (R)-3-(4-amino-3-(4-(3-(3-(trifluoromethyl)phenyl)ureido)phenyl)-1H-pyrazolo[3,4-d]pyrimidin-1-yl)-N-(3-(trifluoromethyl)phenyl)pyrrolidine-1-carboxamide]	1000 to 5000 nM	–	–	–	IC50 (Abl; Table 1a): > 5000 nM
CC(C)(C)OC(=O)N1CC[C@H](n2nc(-c3ccc(NC(=O)Nc4cccc(C(F)(F)F)c4)cc3)c3c(N)ncnc32)C1 [AD78, (S)-tert-butyl 3-(4-amino-3-(4-(3-(3-(trifluoromethyl)phenyl)ureido)phenyl)-1H-pyrazolo[3,4-d]pyrimidin-1-yl)pyrrolidine-1-carboxylate]	< 1000 nM	–	–	–	IC50 (Abl; Table 1a): 1000 to 5000 nM
CC(C)(C)OC(=O)N1CC[C@@H](n2nc(-c3ccc(NC(=O)Nc4cccc(C(F)(F)F)c4)cc3)c3c(N)ncnc32)C1 [AD79, (R)-tert-butyl 3-(4-amino-3-(4-(3-(3-(trifluoromethyl)phenyl)ureido)phenyl)-1H-pyrazolo[3,4-d]pyrimidin-1-yl)pyrrolidine-1-carboxylate]	< 1000 nM	–	–	–	IC50 (Abl; Table 1a): 1000 to 5000 nM
Nc1ncnc2c1c(Cc1cccc(NC(=O)c3cccc(C(F)(F)F)c3)c1)nn2Cc1ccccc1 [BB5, N-(3-((4-amino-1-benzyl-1H-pyrazolo[3,4-d]pyrimidin-3-yl)methyl)phenyl)-3-(trifluoromethyl)benzamide]	1000 to 5000 nM	1000 to 5000 nM	1000 to 5000 nM	–	–
Nc1ncnc2c1c(Cc1cccc(NC(=O)Nc3cccc(C(F)(F)F)c3)c1)nn2Cc1ccccc1 [BB6, 1-(3-((4-amino-1-benzyl-1H-pyrazolo[3,4-d]pyrimidin-3-yl)methyl)phenyl)-3-(3-(trifluoromethyl)phenyl)urea]	1000 to 5000 nM	1000 to 5000 nM	< 1000 nM	–	–
Nc1ncnc2c1c(Cc1cccc(NC(=O)c3cccc(C(F)(F)F)c3)c1)nn2C1CCCC1 [BB9]	< 1000 nM	< 1000 nM	1000 to 5000 nM	–	–
Nc1ncnc2c1c(Cc1cccc(NC(=O)c3cccc(C(F)(F)F)c3)c1)nn2CC1CC1 [BB13]	> 5000 nM	< 1000 nM	< 1000 nM	–	–
Nc1ncnc2c1c(Cc1cccc(NC(=O)Nc3cccc(C(F)(F)F)c3)c1)nn2CC1CC1 [BB14]	< 1000 nM	< 1000 nM	< 1000 nM	–	–
